In one assay the test system is hepatoma cells (HepG2). As to the kind of experiment: MTT method, inhibition of hepatoma cells (HepG2). As to conditions: Homo sapiens, HepG2, absorbance at 595 nm, modified Karber formula, read-out: IC50, inhibition of growth of hepatoma cells (HepG2). The assay is classed as cell-based. The procedure: (§1) The antitumor activity of Ame and Ame-Co complex were studied by MTT method with the following process:
(§2) (1) The HepG2 and HeLa cell suspensions were inoculated into 96-well culture plates, 100 μL was added for each well, (1×10^5/mL), and then cultured in a 5% CO2 incubator at 37° C. for 24 h;
(§3) (2) After culturing for 24 h, the supernatant was discarded, 100 μL of pre-diluted sample was added, 10 replicate wells were set for each concentration, and then incubated in the 5% CO2 incubator for 24 h; meanwhile, control wells (DMSO, cell suspension, MTT), and blank wells (medium, DMSO, MTT) were set;
(§4) (3) After culturing for […], the supernatant was discarded, 100 μL of DMEM medium containing MTT (5 mg/mL) were added, and then continuously cultured for 4 h; […]
(§5) Where, IR is the inhibition rate, OD0 is the absorbance of the control group, OD1 is the absorbance of the sample group, Xm is lg (the maximum dose), I is lg (the maximum dose/adjacent dose), P is the sum of positive reaction rates, Pm is the maximum positive reaction rate, and Pn is the minimum positive reaction rate.
For orientation: Formazan colour is commonly taken as a measure of viable cells.

In a further assay the test system is herring sperm DNA (fDNA). As to the kind of experiment: Interaction with fDNA by UV-vis spectroscopy, fluorescence spectroscopy (fDNA-EB system) and viscosity method. Type of assay: binding. As to conditions: UV-vis, fluorescence (fDNA-EB) and viscosity methods. An excerpt: UV-vis spectroscopy, fluorescence spectroscopy and viscosity method are used to study the interaction between the Ame/Ame-Co complex and herring sperm DNA (fDNA) to further reveal the mechanism of antitumor activity, the obtained spectra are shown in FIGS. 7-11.

Assay [1] has as its system cervical cancer cells (HeLa). The assay is described as follows: MTT method, inhibition of cervical cancer cells (HeLa). To be noted: Homo sapiens, absorbance at 595 nm, modified Karber formula, read-out: IC50, inhibition of growth of cervical cancer cells (HeLa). The assay is classed as cell-based. The protocol: as §1, §2, §3, §4, §5
Assay [2] can be described thus: Pyrogallol auto-oxidation method, O2^−. free radical scavenging. As to conditions: Tris-HCl pH 8.20, 25° C., 322 nm, read-out: IC50 to scavenge O2^−. free radical. The procedure: The free radical scavenging capacity and the total antioxidant capacity of the Ame and the Ame-Co complex were studied by pyrogallol auto-oxidation method, ABTS method and FRAP method with the following steps:
(1) Pyrogallol Auto-Oxidation Method
Determination of auto-oxidation rate V0 of pyrogallol: 2 mL Tris-HCl buffer (pH=8.20) was added to a 10 mL sample tube at 25° C., 100 μL DMSO was added as a control, after adding 0.8 mL distilled water, 0.2 mL pyrogallol solution having a concentration of 2 mmol·L^−1 was added, the mixture was poured into a cuvette after mixing uniformly, the absorbance at 322 nm was measured with pure water as a blank, the A value was recorded every 10 s for a total of 4 min, linear regression was performed with t as the abscissa, and A as the ordinate, straight line slope thereof is V0, and the measurement was performed for three times to obtain an average value. […]

Assay [3] can be described thus: FRAP method, total antioxidant capacity. As to conditions: Fe^3+-TPTZ, 37° C., 30 min, 593 nm. The procedure:
Drawing of the standard curve of FeSO4.7H2O: different volumes of FeSO4.7H2O solution were added to NaAc—HAc buffer (pH=3.6) to prepare Fe^2+ solution with different concentrations. 0.5 mL TPTZ solution, 0.1 mL DMSO, and 1.9 mL NaAc—HAc buffer containing Fe^2+ were successively added into a 10 mL sample tube, after reacting for 5 min at 37° C., the UV-vis spectrum was measured, and the absorption intensity at 593 nm was recorded, and the standard curve was drawn with absorbance (A) as the vertical coordinate and Fe^2+ concentration as the horizontal coordinate.
Determination of total antioxidant capacity of the sample: 0.5 mL TPTZ solution, 0.5 mL ferric chloride solution, 0.1 mL DMSO solution containing samples of different concentrations, and 1.5 mL NaAc—HAc buffer were successively added into a 10 mL sample tube, after reacting for 30 min at 37° C., the UV-vis spectrum was measured, and the absorption intensity A1 at 593 nm was recorded, the absorbance A1 of the sample was converted to the corresponding Fe^2+ ion concentration according to the standard curve of ferrous sulfate, and the curve was drawn with the sample concentration (csample) as the horizontal coordinate and the corresponding Fe^2+ concentration (cFe2+) as the vertical coordinate. […]

As to `O=c1cc(-c2ccc(O)c(-c3c(O)cc(O)c4c(=O)cc(-c5ccc(O)cc5)oc34)c2)oc2cc(O)cc(O)c12` [Ame, amentoflavone], the figures for the IC50 (with hepatoma cells (HepG2); in assay [1]; in assay [2]) were 13.6 µM, 8.04 µM and 23.3 µM, respectively. Moreover, in the assay on herring sperm DNA (fDNA), the “manner of interaction with fDNA” value is “in the intercalation manner”.
Turning to `CS(C)=[O+][Co-4]1([O+]=S(C)C)[O+]=C2C=C(c3ccc(O)cc3)Oc3c2c(cc(O)c3-c2cc(-c3cc(=O)c4c(O)cc(O)cc4o3)ccc2O)[OH+]1` [Ame-Co complex, amentoflavone-cobalt (Ame-Co) complex], in the assay on herring sperm DNA (fDNA), the “manner of interaction with fDNA” value is on record as “in the intercalation manner”; the “strength of interaction with fDNA compared with Ame” value is “stronger than that between the Ame and the fDNA”. For the same compound, the “total antioxidant capacity compared with Ame at the same concentration” value in assay [3] is listed as “significantly stronger than that of Ame”. The IC50 in assay [2] was found to be 4.74 µM.

The term IC50 denotes the concentration needed to halve the response being measured.
